Measured values: PubChem BioAssay AID179 (DTP/NCI, 2004)
Calls of active or inactive are those of the source.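 The calls were made as follows: active = compounds giving half or more protection of infected cells from virus-caused growth loss, again on retest; inactive = the rest.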 Where a SMILES comes first, the peptide text is derived from it. The star is where a group is joined. Boc = CC(C)(C)OC(=O)*; OBn = c1ccc(CO*)cc1

Test system: CEM cells HIV-1 protection, formazan growth assay
Experiment: NCI AIDS Antiviral Assay
Settings: for IC50: measured here: growth of uninfected CEM cells
In short: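 Protection of CEM cells against HIV-1 was scored from cell growth (soluble formazan) across five concentrations, with parallel uninfected cells. Lack of protection may reflect toxicity.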

With `O=C(/C=C/c1ccc(O)c(O)c1)O[C@H]1CCCC[C@@H]1OC(=O)/C=C/c1ccc(O)c(O)c1` the EC50 was > 100 µM and the IC50 was 5.75 µM.
For `Nc1nc(Cl)c2ncn(C3C=CC(CO)CC3)c2n1` (configuration not stated), the EC50 was > 200 µM and the IC50 was 97.7 µM.
In the case of `O=C(Nc1ccccc1)C(c1ccccc1)N(Nc1ccccc1)c1ccccc1` (configuration not stated), the outcome is reported as “inactive”.
`Cc1ccc(S(=O)(=O)N/N=C2\CCCCCCCCCCC2CN(C)C)cc1` (configuration not stated) was tested, and the EC50 was > 200 µM and the IC50 was 28.2 µM.
`OC(/C=C/c1ccccc1)Cc1nc2ccccc2[nH]1` (configuration not stated) was tested, and the EC50 was > 38 µM and the IC50 was > 38 µM.
With `C=C(CCOC)CCC1CCCCC(=C)[C@H]1OC(C)=O` (some centres not stated) the EC50 was > 200 µM and the IC50 was 107 µM.
For `O=C(O)CCC(=O)NC(c1ccccc1)(c1ccccc1)c1ccccc1`, the EC50 was > 200 µM and the IC50 was > 200 µM.
With `NC(=O)C12CC3CC(CC(Br)(C3)C1)C2` the EC50 was > 977 µM and the IC50 was 891 µM.
In the case of `CCOC(=O)c1ccc(CSc2ccc([N+](=O)[O-])cc2)cc1`, the EC50 is reported as > 6.31 µM and the IC50 is reported as > 6.31 µM.
With `COC(=O)CCc1ccc2c(c1)CC1(Cc3ccccc3C1)C2` the EC50 was > 200 µM and the IC50 was 107 µM.
For `Oc1ccc(O)c(CNc2ccc(C(O)C(F)(F)F)cc2)c1` (configuration not stated), the EC50 was > 200 µM and the IC50 was 18.6 µM.
With `CC(C)(N=NC(C)(C)C(=O)NCCO)C(=O)NCCO` the EC50 was > 200 µM and the IC50 was > 200 µM.
In the case of `O=C1OC2CCCC[C@@H]2C2C[C@]34CCCCC3[C@@H](C(=O)O4)C12` (some centres not stated), the EC50 is reported as > 23.4 µM and the IC50 is reported as > 23.4 µM.
In the case of `Cc1ccc(S(=O)(=O)N/N=C/C(=C/c2ccc(Cl)cc2)CC(/C=N/NS(=O)(=O)c2ccc(C)cc2)=C\c2ccc(Cl)cc2)cc1`, the EC50 is reported as > 200 µM and the IC50 is reported as 3.89 µM.
In the case of `Nc1nn2cc3c(nc2c1N=Nc1ccccc1)CCCCC3`, the EC50 is reported as > 200 µM and the IC50 is reported as > 200 µM.
For `Nc1ncnc2c1ccn2COC(CO)CO`, the EC50 was > 200 µM and the IC50 was > 200 µM.
For `CCCC1C[C@H]2CCCCN2[C@H]2CCCN12` (some centres not stated), the EC50 was > 1120 µM and the IC50 was 550 µM.
For `CCC(CCCC[C@H]1CC[C@@H]2CC(=O)C[C@H]12)OC` (some centres not stated), the EC50 was > 200 µM and the IC50 was > 200 µM.
With `CCC1CCN=C(NS(=O)(=O)c2cc(C)c(Cl)cc2S)N1` (configuration not stated) the EC50 was > 200 µM and the IC50 was 39.8 µM.
`N#Cc1c(-c2ccc(Cl)cc2)c(C#N)c(=O)n(NS(=O)(=O)c2ccccc2)c1-c1ccccc1` was tested, and the EC50 was > 151 µM and the IC50 was 32.4 µM.
In the case of `O=c1c(Cl)c(Cl)cnn1CCCl`, the EC50 is reported as > 1100 µM and the IC50 is reported as 1.29 µM.
With `O=[N+]([O-])c1ccc(C2SCc3nc4ccccc4n32)cc1` (configuration not stated) the EC50 was > 55 µM and the IC50 was 33.1 µM.
For `CC(=O)OC1CC2Oc3ccc(C)cc3C(C)(O2)C1=O` (configuration not stated), the outcome was “inactive”.
For `Fc1cccc(F)c1C1SCc2nc3cc(Cl)ccc3n21` (configuration not stated), the EC50 was > 200 µM and the IC50 was 182 µM.
`CC(C)OP(=O)(OC(C)C)/C(F)=N/Nc1ccc([N+](=O)[O-])cc1` was tested, and the EC50 was > 38.9 µM and the IC50 was > 38.9 µM.
With `COc1cc2c(cc1OC)C(=O)/C(=C/c1ccc(O)cc1)CC2` the outcome was “inactive”.
For `COC(=O)[C@H](Cc1ccccc1)NC(=O)N1CCN(C(=O)N[C@@H](Cc2ccccc2)C(=O)OC)CCN(C(=O)N[C@@H](Cc2ccccc2)C(=O)OC)CC1`, the EC50 was > 200 µM and the IC50 was > 200 µM.
In the case of `C/C(=C\C(=O)OCCCCCCCC(N)=O)C(O)[C@@H]1OCC(C/C=C/[C@@H](C)[C@H](C)O)[C@@H](O)[C@H]1O` (some centres not stated), the EC50 is reported as > 200 µM and the IC50 is reported as > 200 µM.
In the case of `CCOC(=O)N1CCN(C(=O)COc2cc3c(O)c4c(O)c(C)c5c(c24)C(=O)C(C)(O/C=C/C(OC)C(C)C(OC(C)=O)C(C)C(O)C(C)C(O)C(C)/C=C/C=C(\C)C(=O)N3)O5)CC1` (configuration not stated), the EC50 is reported as > 200 µM and the IC50 is reported as 13.5 µM.
With `CCOC(=O)/C(O)=C(\C=N\C(=S)Nc1ccc(Cl)c(Cl)c1)C(=O)OCC` the EC50 was > 200 µM and the IC50 was > 200 µM.
In the case of `CC12CCC(C(Nc3ccccn3)C1=O)C2(C)C` (configuration not stated), the outcome is reported as “inactive”.
In the case of `CC1=CN2C(c3ccc(Cl)cc3)=NON(c3ccc(C)cn3)C2C=C1` (configuration not stated), the EC50 is reported as > 10.2 µM and the IC50 is reported as > 10.2 µM.
With `N#CC(C#N)=C1NN=C(Cl)c2ccccc21` the outcome was “inactive”.
For `NC(P(=O)(O)O)P(=O)(O)O`, the EC50 was > 200 µM and the IC50 was > 200 µM.
In the case of `CCOC(=O)C(=O)c1c2cn(O)nc(OC)c-2nc1[N+](=O)[O-]`, the EC50 is reported as > 813 µM and the IC50 is reported as 537 µM.
`CC(=O)OC1(C#N)CC2OC1C1N=NN(C(=O)OC(C)(C)C)C21` (configuration not stated) was tested, and the EC50 was > 155 µM and the IC50 was 14.8 µM.
In the case of `CC(=O)/C(=C/N1CC(=O)NC1=S)C(=O)Nc1ccc([N+](=O)[O-])cc1`, the EC50 is reported as > 200 µM and the IC50 is reported as 155 µM.
`COc1ccc(C2SCC(=O)N2N=C2NC(=O)CC(=O)N2)cc1` (configuration not stated) was tested, and the EC50 was > 200 µM and the IC50 was > 200 µM.
`COc1cc(/C=C/c2nc(N)nnc2C)cc(OC)c1OC` was tested, and the EC50 was > 200 µM and the IC50 was 2.82 µM.
With `CC(C)CC(NC(=O)OC(C)(C)C)C(=O)NC(CC(=O)OCc1ccccc1)C(=O)OCc1ccccc1` (stereo not drawn) (Boc-Leu-Asp(OBn)-OBn; configuration not given here) the EC50 was > 200 µM and the IC50 was 33.1 µM.
For `Fc1ccc(C2NC(c3ccc(Cl)cc3)c3cccn3-c3sccc32)cc1` (configuration not stated), the EC50 was > 100 µM and the IC50 was 79.4 µM.
For `C=C[C@@H](C)[C@@H](O[Si](C)(C)C(C)(C)C)c1c(O)c2c(c3c(CCC)cc(=O)oc13)OC(C)(C)C=C2`, the EC50 was > 200 µM and the IC50 was 105 µM.
In the case of `COc1cccc(C2CC23C(=O)NC(=O)NC3=O)c1` (configuration not stated), the EC50 is reported as > 100 µM and the IC50 is reported as > 100 µM.
In the case of `S=C(Nc1ccccn1)Nc1ccccn1`, the EC50 is reported as > 200 µM and the IC50 is reported as 195 µM.
For `Cn1c(-c2cccc([N+](=O)[O-])c2)[n+](C)c2ccccc21`, the EC50 was > 200 µM and the IC50 was 18.6 µM.
In the case of `CCOC(=O)CCC(NC(=O)c1ccc(Oc2nc3ccc(C(F)(F)F)cc3nc2-c2ccccc2)cc1)C(=O)OCC` (configuration not stated), the EC50 is reported as > 200 µM and the IC50 is reported as 195 µM.
In the case of `COc1ccc(/C=C2\NC(=S)N(/C=C3\C(=O)Oc4ccccc4C3=O)C2=O)cc1OC`, the EC50 is reported as > 200 µM and the IC50 is reported as > 200 µM.
With `CCOC(=O)[C@@H]1CCN2CN(c3ccc(OC)cc3)N=C(c3ccccc3)[C@@]12c1ccccc1` the EC50 was > 200 µM and the IC50 was 18.2 µM.
With `c1cc2c(s1)CCC/C2=N\N=C1/CCCc2sccc21` the outcome was “inactive”.
With `C=C(CCCO)[C@@H]1CC[C@@](C)(O)[C@H]1C` the outcome was “inactive”.
`CN(N=O)C(N)=NC(=O)c1ccccc1` was tested, and the EC50 was > 200 µM and the IC50 was 141 µM.
With `CC(=O)OC1CCC2(C)C(CCC3C4CCC(C(C)OC(C)=O)C4NC(=O)CC32)C1` (configuration not stated) the outcome was “inactive”.
In the case of `N#CCCN(CCO)CCO`, the EC50 is reported as > 200 µM and the IC50 is reported as > 200 µM.
In the case of `CN(C)CCNC(=O)c1cc([N+](=O)[O-])ccn1`, the EC50 is reported as > 200 µM and the IC50 is reported as 95.5 µM.
For `CCN(CC)CC1CCCCN1CC(=O)N1c2ccccc2C(=O)Nc2cccnc21` (configuration not stated), the EC50 was > 200 µM and the IC50 was 32.4 µM.
`O=S(=O)(c1ccccc1)C1CC(c2ccccc2)N(c2ccccc2)O1` (configuration not stated) was tested, and the EC50 was > 27.5 µM and the IC50 was > 27.5 µM.
`Oc1ccc2ccccc2c1NCn1nc(CCCCCCCCc2nn(CNc3c(O)ccc4ccccc34)c(=S)o2)oc1=S` was tested, and the EC50 was > 200 µM and the IC50 was 37.2 µM.
`Cc1nc(Nc2ccccc2Cl)sc1C(=O)CC(=O)C(N)=O` was tested, and the EC50 was > 200 µM and the IC50 was > 200 µM.
With `N[C@@H]1c2c(csc2Br)C(=O)[C@@H]1O` the EC50 was > 200 µM and the IC50 was 11 µM.
In the case of `Cc1nn(-c2ccccn2)c2ncnc(N)c12`, the EC50 is reported as > 200 µM and the IC50 is reported as 162 µM.
In the case of `O=C1OCc2c1[nH]c(=O)[nH]c2=O`, the EC50 is reported as > 200 µM and the IC50 is reported as > 200 µM.
In the case of `O=[N+]([O-])c1ccc(N=Nc2c(NNc3ccc([N+](=O)[O-])cn3)cc(S(=O)(=O)O)c3ccccc23)nc1`, the outcome is reported as “inactive”.
With `CNS(=O)(=O)NN(C)S(=O)(=O)c1ccccc1` the EC50 was > 891 µM and the IC50 was 148 µM.
